Results: patent US11608323B2 (SYNGENTA LIMITED, priority 2013, dated 2023)

Key:
Type in all cases: in vivo
ABUTH [1] = assay: Pre-emergence herbicidal activity, glasshouse pot test; details: rate 1000 g/Ha, evaluated after 13 days, scale 0-5
How it was run: (§1)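 Damage was rated 13 days after treatment on a 0–5 scale (0 = no damage, 5 = total damage). Pots of seeds in standard soil were sprayed one day after sowing with an aqueous solution from an acetone/water (50:50), 0.5% Tween 20 formulation and kept at 24/16 °C day/night.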

ALOMY [2] = assay: as above; details: rate 1000 g/Ha, evaluated after 13 days, scale 0-5
How it was run: as §1

AMARE [3] = assay: as above; details: rate 1000 g/Ha, evaluated after 13 days, scale 0-5
How it was run: as §1

ECHCG [4] = assay: as above; details: rate 1000 g/Ha, evaluated after 13 days, scale 0-5
How it was run: as §1

SETFA [5] = assay: as above; details: rate 1000 g/Ha, evaluated after 13 days, scale 0-5
How it was run: as §1

ZEAMX [6] = assay: as above; details: rate 1000 g/Ha, evaluated after 13 days, scale 0-5
How it was run: as §1

ABUTH [7] = assay: Post-emergence herbicidal activity, glasshouse pot test; details: Abutilon theophrasti; application post-emergence; rate 1000 g/Ha; evaluated after 13 days
How it was run: (§2)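 Pot-grown plants, 8 days after sowing, were sprayed with compound formulated in acetone/water (50:50) with 0.5% Tween 20. Glasshouse conditions 24/16° C day/night, 14 h light, 65% humidity; damage scored after 13 days on a 0 (none) to 5 (total) scale.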

ALOMY [8] = assay: as above; details: Alopecurus myosuroides; application post-emergence; rate 1000 g/Ha; evaluated after 13 days
How it was run: as §2

AMARE [9] = assay: as above; details: Amaranthus retroflexus; application post-emergence; rate 1000 g/Ha; evaluated after 13 days
How it was run: as §2

ECHCG [10] = assay: as above; details: Echinochloa crus-galli; application post-emergence; rate 1000 g/Ha; evaluated after 13 days
How it was run: as §2

SETFA [11] = assay: as above; details: Setaria faberi; application post-emergence; rate 1000 g/Ha; evaluated after 13 days
How it was run: as §2

ZEAMX [12] = assay: as above; details: Zea mays; application post-emergence; rate 1000 g/Ha; evaluated after 13 days
How it was run: as §2

Structure (SMILES) | ABUTH damage score, application pre-emergence (ABUTH [1]) | ALOMY damage score, application pre-emergence (ALOMY [2]) | AMARE damage score, application pre-emergence (AMARE [3]) | ECHCG damage score, application pre-emergence (ECHCG [4]) | SETFA damage score, application pre-emergence (SETFA [5]) | ZEAMX damage score, application pre-emergence (ZEAMX [6]) | Post-emergence herbicidal activity ABUTH (damage score 0-5) (ABUTH [7]) | Post-emergence herbicidal activity ALOMY (damage score 0-5) (ALOMY [8]) | Post-emergence herbicidal activity AMARE (damage score 0-5) (AMARE [9]) | Post-emergence herbicidal activity ECHCG (damage score 0-5) (ECHCG [10]) | Post-emergence herbicidal activity SETFA (damage score 0-5) (SETFA [11]) | Post-emergence herbicidal activity ZEAMX (damage score 0-5) (ZEAMX [12])
CC1C(O)N(c2cc(C(F)(F)F)ccn2)C(=O)N1C (stereo not drawn) [Compound A19, 4-hydroxy-1,5-dimethyl-3-[4-(trifluoromethyl)-2-pyridyl]imidazolidin-2-one] | 5 | 4 | 5 | 5 | 5 | 3 | 5 | 5 | 5 | 5 | 5 | 4
COc1cncc(-c2cnc(N3C(=O)N(C)C(C)C3O)cc2C(F)(F)F)c1 (stereo not drawn) [Compound A20] | 5 | 4 | 5 | 4 | 5 | 5 | 5 | 5 | 5 | 5 | 5 | 4
COc1ccc(-c2cnc(N3C(=O)N(C)C(C)C3O)cc2C(F)(F)F)cn1 (stereo not drawn) [Compound A21] | 5 | 3 | 5 | 5 | 5 | 2 | 5 | 5 | 5 | 5 | 5 | 3
COc1ncc(-c2cnc(N3C(=O)N(C)C(C)C3O)cc2C(F)(F)F)cn1 (stereo not drawn) [Compound A22] | 5 | 4 | 5 | 5 | 5 | 3 | 5 | 5 | 5 | 5 | 5 | 5
COc1ccncc1-c1cnc(N2C(=O)N(C)C(C)C2O)cc1C(F)(F)F (stereo not drawn) [Compound A23] | 2 | 3 | 5 | 2 | 3 | 1 | 5 | 4 | 5 | 2 | 4 | 2
Cc1ccc(-c2cnc(N3C(=O)N(C)C(C)C3O)cc2C(F)(F)F)cn1 (stereo not drawn) [Compound A24] | 5 | 4 | 5 | 5 | 4 | 3 | 5 | 5 | 5 | 5 | 5 | 4
CC1C(O)N(c2cc(C(F)(F)F)c(I)cn2)C(=O)N1C (stereo not drawn) [Compound A25, 5-hydroxy-1-[5-iodo-4-(trifluoromethyl)-2-pyridyl]-3,4-dimethyl-imidazolidin-2-one] | 5 | 4 | 5 | 5 | 4 | 2 | 5 | 5 | 5 | 5 | 5 | 5
CCOC1C(O)N(c2cc(C(F)(F)F)ccn2)C(=O)N1CC (stereo not drawn) [Compound A29] | 5 | 1 | 5 | 1 | 2 | 1 | 5 | 4 | 5 | 4 | 3 | 2
C=CCC1C(O)N(c2cc(C(F)(F)F)ccn2)C(=O)N1C (stereo not drawn) [Compound A32, 5-allyl-4-hydroxy-1-methyl-3-[4-(trifluoromethyl)-2-pyridyl]imidazolidin-2-one] | 5 | 4 | 5 | 5 | 4 | 2 | 5 | 5 | 5 | 5 | 5 | 2
CN1C(=O)N(c2cc(C(F)(F)F)ccn2)C(O)C1C(F)(F)F (stereo not drawn) [Compound A33, 4-hydroxy-1-methyl-5-(trifluoromethyl)-3-[4-(trifluoromethyl)-2-pyridyl]imidazolidin-2-one] | 4 | 3 | 5 | 2 | 3 | 0 | 5 | 4 | 3 | 1 | 2 | 1
